Data taken from ChEMBL document CHEMBL3045909, “Synthesis and antitumor studies of novel benzopyrano-1,2,3-selenadiazole and spiro[benzopyrano]-1,3,4-thiadiazoline derivatives” (Med Chem Res, 2013).
Activity calls are given as the source filed them. No cut-off for these calls is given here.

How the values were obtained:
HepG2 = assay: Cytotoxicity against Homo sapiens (human) HepG2 cells assessed as inhibition of cell survival after 96 hr; format: functional, cell-based; settings: HepG2, 96 h
WI-38 = assay: Cytotoxicity against Homo sapiens (human) WI38 cells assessed as inhibition of cell survival after 96 hr; format: functional, cell-based; settings: WI-38, 96 h
MCF7 = assay: Cytotoxicity against Homo sapiens (human) MCF7 cells assessed as inhibition of cell survival after 96 hr; format: functional, cell-based; settings: MCF7, 96 h
Mus musculus [1] = assay: Increase in hematocrit content in Ehrlich ascites carcinoma xenografted Swiss albino Mus musculus (mouse) blood at 50 mg/kg, ip qd for 9 days administered at 24 hr after tumour cell inoculation measured on day 14 post-tumor cell implantation (reference value: 35.50%); format: functional; settings: route intraperitoneal
Mus musculus [2] = assay: Increase in hemoglobin content in Ehrlich ascites carcinoma xenografted Swiss albino Mus musculus (mouse) blood at 50 mg/kg, ip qd for 9 days administered at 24 hr after tumour cell inoculation measured on day 14 post-tumor cell implantation (reference value: 8.70 g/dl); format: functional; settings: route intraperitoneal
[3] = Antitumor activity against Ehrlich ascites carcinoma cells xenografted in Swiss albino Mus musculus (mouse) assessed as carcinoma cell viability at 50 mg/kg, ip qd for 5 days administered at 24 hr after tumour cell inoculation by trypan blue assay (reference value: 220x10^6/ml); format: functional; settings: route intraperitoneal
[4] = Antitumor activity against Ehrlich ascites carcinoma cells xenografted in Swiss albino Mus musculus (mouse) assessed as increase in lifespan at 50 mg/kg, ip qd for 9 days administered at 24 hr after tumour cell inoculation; format: functional; settings: route intraperitoneal
[5] = Antitumor activity against Ehrlich ascites carcinoma cells xenografted in Swiss albino Mus musculus (mouse) assessed as mean survival time at 50 mg/kg, ip qd for 9 days administered at 24 hr after tumour cell inoculation (reference value: 9.10/day); format: functional; settings: route intraperitoneal
Vero = assay: Cytotoxicity against Chlorocebus aethiops (African green monkey) Vero cells assessed as inhibition of cell survival after 96 hr; format: functional, cell-based; settings: Chlorocebus sabaeus
Mus musculus [6] = assay: Increase in hematocrit content in Ehrlich ascites carcinoma xenografted Swiss albino Mus musculus (mouse) blood at 20 mg/kg, ip qd for 9 days administered at 24 hr after tumour cell inoculation measured on day 14 post-tumor cell implantation (reference value: 35.50%); format: functional; settings: route intraperitoneal
Mus musculus [7] = assay: Increase in hemoglobin content in Ehrlich ascites carcinoma xenografted Swiss albino Mus musculus (mouse) blood at 20 mg/kg, ip qd for 9 days administered at 24 hr after tumour cell inoculation measured on day 14 post-tumor cell implantation (reference value: 8.70 g/dl); format: functional; settings: route intraperitoneal
[8] = Antitumor activity against Ehrlich ascites carcinoma cells xenografted in Swiss albino Mus musculus (mouse) assessed as carcinoma cell viability at 20 mg/kg, ip qd for 5 days administered at 24 hr after tumour cell inoculation by trypan blue assay (reference value: 220x10^6/ml); format: functional; settings: route intraperitoneal
[9] = Acute toxicity in ip dosed Ehrlich ascites carcinoma xenografted Swiss albino Mus musculus (mouse) assessed as mortality administered once a day for 9 days at 24 hr after tumour cell inoculation; format: organism-based; settings: in vivo
Mus musculus [10] = assay: Acute toxicity in Ehrlich ascites carcinoma xenografted Swiss albino Mus musculus (mouse) assessed as decrease in locomotor activity at >500 mg/kg, ip qd for 9 days administered at 24 hr after tumour cell inoculation; format: organism-based; settings: in vivo
Mus musculus [11] = assay: Neurotoxicity in Ehrlich ascites carcinoma xenografted Swiss albino Mus musculus (mouse) assessed as effect on tremor, twitch, jumping, drowsy at >500 mg/kg, ip qd for 9 days administered at 24 hr after tumour cell inoculation; format: toxicity, organism-based; settings: in vivo
[12] = Antitumor activity against Ehrlich ascites carcinoma cells xenografted in Swiss albino Mus musculus (mouse) assessed as increase in lifespan at 20 mg/kg, ip qd for 9 days administered at 24 hr after tumour cell inoculation; format: functional; settings: route intraperitoneal
[13] = Antitumor activity against Ehrlich ascites carcinoma cells xenografted in Swiss albino Mus musculus (mouse) assessed as mean survival time at 20 mg/kg, ip qd for 9 days administered at 24 hr after tumour cell inoculation (reference value: 9.10/day); format: functional; settings: route intraperitoneal
Ehrlich [14] = assay: Antitumor activity against Ehrlich ascites carcinoma cells xenografted in Swiss albino Mus musculus (mouse) assessed as decrease in tumour size at 50 mg/kg, ip qd for 9 days administered at 24 hr after tumour cell inoculation; format: functional, organism-based; parameters: dose 50 mg/kg
Ehrlich [15] = assay: Antitumor activity against Ehrlich ascites carcinoma cells xenografted in Swiss albino Mus musculus (mouse) assessed as decrease in abdominal ascites at 50 mg/kg, ip qd for 9 days administered at 24 hr after tumour cell inoculation; format: functional, organism-based; parameters: dose 50 mg/kg
Ehrlich [16] = assay: Antitumor activity against Ehrlich ascites carcinoma cells xenografted in Swiss albino Mus musculus (mouse) assessed as decrease in tumour size at 20 mg/kg, ip qd for 9 days administered at 24 hr after tumour cell inoculation; format: functional, organism-based; parameters: dose 20 mg/kg
Ehrlich [17] = assay: Antitumor activity against Ehrlich ascites carcinoma cells xenografted in Swiss albino Mus musculus (mouse) assessed as decrease in abdominal ascites at 20 mg/kg, ip qd for 9 days administered at 24 hr after tumour cell inoculation; format: functional, organism-based; parameters: dose 20 mg/kg

| Compound | IC50 (HepG2) [µM] | IC50 (WI-38) [µM] | IC50 (MCF7) [µM] | IC50 (Vero) [µM] | also measured |
| --- | --- | --- | --- | --- | --- |
| O=c1[nH]cc(F)c(=O)[nH]1 [FLUOROURACIL] | 70 | 20 | 20 | – | Activity (Mus musculus [1]): 42.3%; Activity (Mus musculus [2]): 10 g/dL; Activity [3]: 123 ×10⁶ /ml; Activity [4]: 72.53%; MST [5]: 15.7 days |
| CCC1(C)CC(=O)c2cc(O)ccc2O1 (stereo not drawn) | 150 | 150 | 150 | 150 | – |
| NC(=O)N/N=C1\CC2(CCCCCC2)Oc2ccc(O)cc21 | 1120 | 1120 | 1120 | 1130 | – |
| CC(=O)NC1=NN(C(C)=O)C2(CC(C)(C)Oc3ccc(OC(C)=O)cc32)S1 (stereo not drawn) | 30 | 30 | 30 | 30 | Activity (Mus musculus [6]): 45%; Activity (Mus musculus [7]): 11.9 g/dL; Activity [8]: 110 ×10⁶ /ml; LD50 at 9 days [9]: 248 mg/kg; Activity (Mus musculus [10]): Toxic; Activity (Mus musculus [11]): Non-toxic; Activity [12]: 98.9%; MST [13]: 18.1 days; inhibition (Ehrlich [14]): Active; inhibition (Ehrlich [15]): Active; inhibition (Ehrlich [16]): Active; inhibition (Ehrlich [17]): Active |
| CC(=O)NC1=NN(C(C)=O)C2(CC3(CCCCC3)Oc3ccc(OC(C)=O)cc32)S1 (stereo not drawn) | 70 | 80 | 80 | 80 | – |
| CCC1(C)C/C(=N\NC(N)=S)c2cc(O)ccc2O1 (stereo not drawn) | 60 | 60 | 60 | 60 | – |
| CC1(C)C/C(=N\NC(N)=O)c2cc(O)ccc2O1 | 120 | 140 | 150 | 170 | – |
| O=C1CC2(CCCCCC2)Oc2ccc(O)cc21 | 1450 | 1430 | 1510 | 1320 | – |
| Oc1ccc2c(c1)-c1nn[se]c1C1(CCCCCC1)O2 | 1150 | 1610 | 1490 | 1190 | – |
| CC1(C)CC(=O)c2cc(O)ccc2O1 | 480 | 430 | 410 | 420 | – |
| CC1(C)C/C(=N\NC(N)=S)c2cc(O)ccc2O1 | 140 | 120 | 140 | 150 | – |
| O=C1CC2(CCCC2)Oc2ccc(O)cc21 | 460 | 510 | 640 | 740 | – |
| NC(=S)N/N=C1\CC2(CCCCCC2)Oc2ccc(O)cc21 | 1440 | 1510 | 1620 | 1440 | – |
| Oc1ccc2c(c1)-c1nn[se]c1C1(CCCCC1)O2 | 90 | 110 | 120 | 100 | – |
| CCC1(C)Oc2ccc(O)cc2-c2nn[se]c21 (stereo not drawn) | 50 | 50 | 60 | 60 | Activity (Mus musculus [6]): 43.7%; Activity (Mus musculus [7]): 10.5 g/dL; Activity [8]: 107 ×10⁶ /ml; LD50 at 9 days [9]: 247 mg/kg; Activity (Mus musculus [10]): Toxic; Activity (Mus musculus [11]): Non-toxic; Activity [12]: 73.63%; MST [13]: 15.8 days; inhibition (Ehrlich [14]): Active; inhibition (Ehrlich [15]): Active; inhibition (Ehrlich [16]): Active; inhibition (Ehrlich [17]): Active |
| CC(=O)NC1=NN(C(C)=O)C2(CC3(CCCC3)Oc3ccc(OC(C)=O)cc32)S1 (stereo not drawn) | 50 | 40 | 50 | 40 | – |
| CC1(C)Oc2ccc(O)cc2-c2nn[se]c21 | 60 | 70 | 60 | 50 | – |
| NC(=O)N/N=C1\CC2(CCCC2)Oc2ccc(O)cc21 | 100 | 100 | 110 | 90 | – |
| CCC1(C)C/C(=N\NC(N)=O)c2cc(O)ccc2O1 (stereo not drawn) | 60 | 70 | 70 | 50 | – |
| Oc1ccc2c(c1)-c1nn[se]c1C1(CCCC1)O2 | 60 | 70 | 60 | 60 | – |
| NC(=O)N/N=C1\CC2(CCCCC2)Oc2ccc(O)cc21 | 150 | 160 | 70 | 80 | – |
| NC(=S)N/N=C1\CC2(CCCC2)Oc2ccc(O)cc21 | 100 | 100 | 100 | 90 | – |
| NC(=S)N/N=C1\CC2(CCCCC2)Oc2ccc(O)cc21 | 820 | 1120 | 1340 | 840 | – |
| CCC1(C)CC2(SC(NC(C)=O)=NN2C(C)=O)c2cc(OC(C)=O)ccc2O1 (stereo not drawn) | 620 | 840 | 1010 | 630 | – |
| O=C1CC2(CCCCC2)Oc2ccc(O)cc21 | 190 | 210 | 90 | 90 | – |
